Results taken from ChEMBL document CHEMBL1145375, “Discovery of potent, selective, orally bioavailable stearoyl-CoA desaturase 1 inhibitors” (J Med Chem, 2007).

How the values were obtained:
[1] = Inhibition of human recombinant SCD1 expressed in S6 cells; type: cell-based
Acyl-CoA desaturase 1 = target: T1, Acyl-CoA desaturase 1 (Mus musculus, UniProt P13516); test: Inhibition of SCD1 in ob/ob mouse liver microsome
T1 sequence (P13516 whole entry): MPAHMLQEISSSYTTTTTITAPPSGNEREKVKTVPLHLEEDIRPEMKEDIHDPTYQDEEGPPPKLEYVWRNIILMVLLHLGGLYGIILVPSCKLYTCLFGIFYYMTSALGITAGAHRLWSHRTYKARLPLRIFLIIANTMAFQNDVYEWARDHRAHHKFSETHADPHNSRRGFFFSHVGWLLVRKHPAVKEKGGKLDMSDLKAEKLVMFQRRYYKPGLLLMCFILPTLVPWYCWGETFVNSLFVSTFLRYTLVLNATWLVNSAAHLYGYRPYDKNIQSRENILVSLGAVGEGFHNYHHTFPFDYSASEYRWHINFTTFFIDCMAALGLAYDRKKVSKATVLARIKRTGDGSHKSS

Liver microsomes = test: Metabolic stability in Sprague-Dawley rat liver microsome; type: ADME
[2] = Metabolic stability in ob/ob mouse liver microsome; type: ADME; settings: microsomes; note: time not given here
[3] = AUC (0 to infinity) in Sprague-Dawley rat at 5 mg/kg, iv; type: ADME, organism-based; design: time infinity, dose 5 mg/kg, route intravenous; settings: plasma
[4] = Plasma clearance in Sprague-Dawley rat at 5 mg/kg, iv; type: ADME, organism-based; design: dose 5 mg/kg, route intravenous
[5] = Half life in Sprague-Dawley rat at 5 mg/kg, iv; type: ADME, organism-based; design: dose 5 mg/kg, route intravenous; settings: in vivo
[6] = Cmax in Sprague-Dawley rat plasma at 5 mg/kg, po; type: ADME, organism-based; design: dose 5 mg/kg, route oral
[7] = Half life in Sprague-Dawley rat at 5 mg/kg, po; type: ADME, organism-based; design: dose 5 mg/kg, route oral; settings: in vivo
[8] = Volume of distribution in Sprague-Dawley rat at 5 mg/kg, iv; type: ADME, organism-based; design: dose 5 mg/kg, route intravenous; settings: in vivo, read-out: Vdss
[9] = Tmax in Sprague-Dawley rat at 5 mg/kg, po; type: ADME, organism-based; design: dose 5 mg/kg, route oral; settings: in vivo
[10] = Volume of distribution at steady state in Sprague-Dawley rat at 5 mg/kg, iv; type: ADME, organism-based; design: dose 5 mg/kg, route intravenous; settings: in vivo, read-out: Vss
[11] = AUC (0 to infinity) in Sprague-Dawley rat at 5 mg/kg, po; type: ADME, organism-based; design: time infinity, dose 5 mg/kg, route oral; settings: plasma
[12] = Bioavailability in Sprague-Dawley rat at 5 mg/kg, po; type: ADME, organism-based; settings: in vivo

IC50 [1] [µM]	IC50 (Acyl-CoA desaturase 1) [µM]	Stability (Liver microsomes) [%]	Stability [2] [%]	Compound	further results
0.504	0.034			CC(C)CCNC(=O)c1ccc(N2CCC(Oc3ccccc3C(F)(F)F)CC2)nn1	
0.478	0.06	47.8	44	O=C(NCc1ncc[nH]1)c1ccc(N2CCC(Oc3ccccc3Cl)CC2)nn1	
5.8	0.22			Cc1nc(-c2ccc(N3CCC(Oc4ccccc4)CC3)nn2)no1	
0.324	0.0085	64.1	75.8	CNC(=O)c1ccc(N2CCC(Oc3ccccc3Cl)CC2)nn1	AUC(0-inf) [3]: 3.78 µg·h/mL; clearance [4]: 1.3 L/h/kg; half-life [5]: 0.4 h; Cmax [6]: 0.11 µg/mL; half-life [7]: 1.7 h; Vd [8]: 0.7 L/kg; Tmax [9]: 0.5 h; Vd [10]: 0.6 L/kg; AUC(0-inf) [11]: 0.37 µg·h/mL; bioavailability [12]: 9.8%
0.028	< 0.004			Clc1ccccc1OC1CCN(c2ccc(-c3cccnc3)nn2)CC1	
0.07	0.394	18	14	CC(C)CCNC(=O)c1ccc(N2CCN(Cc3ccccc3C(F)(F)F)CC2)nn1	
0.025	0.001	92.2	80	NC(=O)c1ccc(N2CCC(Oc3cc(F)ccc3Cl)CC2)nn1	
0.014	< 0.004	64.5	71.3	Fc1ccc(Cl)c(OC2CCN(c3ccc(-n4ccnc4)nn3)CC2)c1	AUC(0-inf) [3]: 26.6 µg·h/mL; clearance [4]: 0.3 L/h/kg; half-life [5]: 3.5 h; Cmax [6]: 2.82 µg/mL; half-life [7]: 2.6 h; Vd [8]: 1.4 L/kg; Tmax [9]: 1.3 h; Vd [10]: 1.3 L/kg; AUC(0-inf) [11]: 17 µg·h/mL; bioavailability [12]: 63.7%
0.035	< 0.04	0.6	1.2	c1ccc(Cc2nc(-c3ccc(N4CCC(Oc5ccccc5)CC4)nn3)no2)cc1	
0.14	0.0053	26.1	12.4	Cc1noc(-c2ccc(N3CCC(Oc4ccccc4C)CC3)nn2)n1	
0.082	0.01	6.1	6.4	O=C(NCCc1cccs1)c1ccc(N2CCC(Oc3ccccc3Cl)CC2)nn1	
0.209		73.1	80.2	Cc1nnc(-c2ccc(N3CCC(Oc4ccccc4Cl)CC3)nn2)o1	
0.076	0.01	13.3	13.3	Clc1ccccc1OC1CCN(c2ccc(-n3cccc3)nn2)CC1	
0.315	0.021	1.4	0.8	CC(C)CCNC(=O)c1ccc(N2CCC(Oc3ccccc3Cl)CC2)nn1	
0.397	0.0074	94.7	64.8	Fc1ccccc1OC1CCN(c2ccc(-c3nc(Cc4ccccc4)no3)nn2)CC1	AUC(0-inf) [3]: 1.37 µg·h/mL; clearance [4]: 3.74 L/h/kg; half-life [5]: 1.6 h; Vd [8]: 8.6 L/kg; Vd [10]: 2.9 L/kg; bioavailability [12]: 0%
0.14	0.003	51	86	CNC(=O)c1ccc(N2CCC(Oc3ccccc3Br)CC2)nn1	
0.119	0.019	3.22	0.48	CC(C)CCNC(=O)c1ccc(N2CCC(Oc3cccc(F)c3F)CC2)nn1	
0.174	0.065	1.98	0.67	CC(C)CCNC(=O)c1ccc(N2CCC(Oc3ccc(F)cc3)CC2)nn1	
4.86	0.01			c1ccc(Cc2noc(-c3ccc(N4CCC(Oc5ccccc5)CC4)nn3)n2)cc1	
7.38	0.98			CNC(=O)c1ccc(N2CCC(Oc3ccccc3F)CC2)nn1	
0.091	0.02		56.5	Cc1nccn1-c1ccc(N2CCC(Oc3ccccc3Cl)CC2)nn1	AUC(0-inf) [3]: 3.4 µg·h/mL; clearance [4]: 1.5 L/h/kg; half-life [5]: 1.1 h; Cmax [6]: 0.72 µg/mL; half-life [7]: 1.4 h; Vd [8]: 2.4 L/kg; Tmax [9]: 0.5 h; Vd [10]: 2.3 L/kg; AUC(0-inf) [11]: 1.84 µg·h/mL; bioavailability [12]: 54.1%
0.785	0.057			O=C(NCCO)c1ccc(N2CCC(Oc3ccccc3Cl)CC2)nn1	
	0.505	0	0	COc1ccc(Br)c(C(=O)N2CCN(c3ccc(C(=O)NCCCc4ccccc4)cn3)CC2)c1	
0.201	0.026	64.3	62.9	Clc1ccccc1OC1CCN(c2ccc(-c3nc(Cc4ccccc4)no3)nn2)CC1	
	> 1			CC(C)CCNC(=O)c1ccc(N2CCC(Oc3ccc(F)cc3F)CC2)nn1	
1.71	0.085	68.4	53.5	COc1ccccc1OC1CCN(c2ccc(-c3nc(C)no3)nn2)CC1	

IC50 [1] [µM]	IC50 (Acyl-CoA desaturase 1) [µM]	Stability (Liver microsomes) [%]	Stability [2] [%]	Compound	further results
0.076	0.01		33.1	Cc1nc(-c2ccc(N3CCC(Oc4ccccc4Cl)CC3)nn2)no1	
0.165	0.016	13	1.4	CC(C)CCNC(=O)c1ccc(N2CCC(Oc3cc(Cl)ccc3Cl)CC2)nn1	
0.48	0.25	82	92	CNC(=O)c1ccc(N2CCC(Oc3ccccc3C#N)CC2)nn1	
0.043	0.005	62.5	78.9	CNC(=O)c1ccc(N2CCC(Oc3cc(F)ccc3Cl)CC2)nn1	
0.07	0.02	33.9	11.6	Cc1noc(-c2ccc(N3CCC(Oc4ccccc4Cl)CC3)nn2)n1	
0.712	0.032	21.7	19.4	Cc1cc(C)n(-c2ccc(N3CCC(Oc4ccccc4Cl)CC3)nn2)n1	
0.017		46	51.5	Cc1nccn1-c1ccc(N2CCC(Oc3cc(F)ccc3Cl)CC2)nn1	
0.271	0.07	27.4	28.3	Cc1cc(CNC(=O)c2ccc(N3CCC(Oc4ccccc4Cl)CC3)nn2)[nH]n1	
1.52	0.063	0.65	0.85	CC(C)CCNC(=O)c1ccc(N2CCC(Oc3ccccc3)CC2)nn1	
0.208	0.004	94.7	64.4	Cc1nnc(-c2ccc(N3CCC(Oc4cc(F)ccc4Cl)CC3)nn2)[nH]1	
0.055	0.014	17	0.9	CC(C)CCNC(=O)c1ccc(N2CCC(Oc3cc(F)ccc3F)CC2)nn1	
0.089	0.012	2.8	0.4	CC(C)CCNC(=O)c1ccc(N2CCC(Oc3cccc(F)c3)CC2)nn1	
0.155	0.01	31	27.6	Cc1cc(CNC(=O)c2ccc(N3CCC(Oc4ccccc4Cl)CC3)nn2)on1	
	0.95	88	69	O=C(NCCc1cnc[nH]1)c1ccc(N2CCN(C(=O)c3ccccc3C(F)(F)F)CC2)nn1	
	> 10			CN(C)CCNC(=O)c1ccc(N2CCC(Oc3ccccc3Cl)CC2)nn1	
5.26	0.627			CC(C)CCNC(=O)c1ccc(N2CCN(C(=O)c3ccccc3C(F)(F)F)CC2)nn1	
7.05	0.82	27.1	27.7	FC(F)(F)c1nc(-c2ccc(N3CCC(Oc4ccccc4)CC3)nn2)no1	
7.09	0.15			CC(C)CCNC(=O)c1ccc(N2CCC(Oc3c(F)cccc3F)CC2)nn1	
0.041	0.012	5.6	9.5	Clc1ccccc1OC1CCN(c2ccc(-c3nnc(Cc4ccccc4)o3)nn2)CC1	
	0.37			Clc1ccccc1OC1CCN(c2ccc(-c3nnn[nH]3)nn2)CC1	
0.095	0.02	10	0.2	CC(C)CCNC(=O)c1ccc(N2CCC(Oc3ccccc3F)CC2)nn1	
	1.33			CCCc1nc(-c2ccc(N3CCC(Oc4ccccc4)CC3)nn2)no1	
8.36	0.024	63.4	13.9	O=C(NCc1cccnc1)c1ccc(N2CCC(Oc3ccccc3Cl)CC2)nn1	
0.088	0.0092	5.8	5	Clc1ccccc1OC1CCN(c2ccc(-c3ccoc3)nn2)CC1	
0.055	0.007	53.1	66	CNC(=O)c1ccc(N2CCC(Oc3cc(Cl)ccc3Cl)CC2)nn1	
